Earlier results as cited in patent publication US11129815B2, “Solid dispersions comprising tacrolimus” (Veloxis Pharmaceuticals A/S, priority 2003, dated 2021).

Key:
[1] = not given; remark: listed apart in the source

solubility in chloroform (chloroform): very soluble | solubility in ethanol (ethanol): freely soluble | solubility in methanol (methanol): very soluble | solubility in water (water): practically insoluble | bioavailability ([1]; after oral administration): ≤ 20% | mean time-to-peak concentration (tmax) ([1]; oral administration, healthy subjects or kidney or liver transplanted patients): 1 to 2 h
SMILES: C=CC[C@@H]1/C=C(\C)C[C@H](C)C[C@H](OC)[C@H]2O[C@@](O)(C(=O)C(=O)N3CCCC[C@H]3C(=O)O[C@H](/C(C)=C/[C@@H]3CC[C@@H](O)[C@H](OC)C3)[C@H](C)[C@@H](O)CC1=O)[C@H](C)C[C@@H]2OC [Tacrolimus]
